ChEMBL document CHEMBL1201862, “PubChem BioAssay data set” (2004)
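Following 48 hours of exposure in 96-well plates, responses at five concentrations were used to interpolate endpoints linearly. GI50 = concentration required for 50% inhibition of growth.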 Active and inactive are the calls of the source. Cut-off read from the data, not from the text of the source: active = GI50 up to about 1.1 µM and inactive = higher.

What was measured:
Test in all cases: growth of human tumour cells (NCI), 48 h
[1] = tested on: SK-MEL-5
[2] = tested on: MCF7
[3] = tested on: SK-MEL-2
[4] = tested on: SF-268
[5] = tested on: HCT-15
[6] = tested on: PC-3
[7] = tested on: EKVX
[8] = tested on: IGROV-1
[9] = tested on: HCC 2998
[10] = tested on: NCI/ADR-RES
[11] = tested on: OVCAR-4
[12] = tested on: SW-620
[13] = tested on: K562
[14] = tested on: Hs-578T
[15] = tested on: OVCAR-5
[16] = tested on: NCI-H226
[17] = tested on: COLO 205
[18] = tested on: SNB-19
[19] = tested on: SNB-75
[20] = tested on: HCT-116
[21] = tested on: CAKI-1
[22] = tested on: HT-29
[23] = tested on: HOP-62
[24] = tested on: M14
[25] = tested on: NCI-H522
[26] = tested on: SK-MEL-28
[27] = tested on: ACHN
[28] = tested on: KM12
[29] = tested on: DU-145
[30] = tested on: SF-539
[31] = tested on: OVCAR-3
[32] = tested on: BT-549
[33] = tested on: SK-OV-3
[34] = tested on: OVCAR-8
[35] = tested on: MDA-MB-435
[36] = tested on: TK-10
[37] = tested on: MDA-MB-231
[38] = tested on: UACC-62
[39] = tested on: UO-31
[40] = tested on: HL-60
[41] = tested on: SN12C
[42] = tested on: RXF 393
[43] = tested on: NCI-H23
[44] = tested on: A498
[45] = tested on: RPMI-8226
[46] = tested on: MDA-N
[47] = tested on: U-251
[48] = tested on: NCI-H460
[49] = tested on: HOP-92
[50] = tested on: LOX IMVI
[51] = tested on: 786-0
[52] = tested on: SR
[53] = tested on: SF-295
[54] = tested on: UACC-257
[55] = tested on: Malme-3M
[56] = tested on: MOLT-4
[57] = tested on: T47D
[58] = tested on: A549

SMILES: Cn1c(=S)c2nc(SCc3cccnc3)[nH]c2n(C)c1=O
- GI50 [1]: > 100 µM (inactive)
- GI50 [2]: > 100 µM (inactive)
- GI50 [3]: > 100 µM (inactive)
- GI50 [4]: > 100 µM (inactive)
- GI50 [5]: > 100 µM
- GI50 [6]: > 100 µM (inactive)
- GI50 [7]: > 100 µM (inactive)
- GI50 [8]: > 100 µM (inactive)
- GI50 [9]: > 100 µM (inactive)
- GI50 [10]: > 100 µM (inactive)
- GI50 [11]: > 100 µM (inactive)
- GI50 [12]: > 100 µM (inactive)
- GI50 [13]: > 100 µM (inactive)
- GI50 [14]: 92 µM (inactive)
- GI50 [15]: > 100 µM (inactive)
- GI50 [16]: > 100 µM (inactive)
- GI50 [17]: > 100 µM (inactive)
- GI50 [18]: > 100 µM (inactive)
- GI50 [19]: 96.8 µM (inactive)
- GI50 [20]: > 100 µM (inactive)
- GI50 [21]: > 100 µM (inactive)
- GI50 [22]: > 100 µM (inactive)
- GI50 [23]: > 100 µM (inactive)
- GI50 [24]: > 100 µM (inactive)
- GI50 [25]: 82 µM (inactive)
- GI50 [26]: > 100 µM (inactive)
- GI50 [27]: > 100 µM (inactive)
- GI50 [28]: > 100 µM (inactive)
- GI50 [29]: > 100 µM (inactive)
- GI50 [30]: > 100 µM (inactive)
- GI50 [31]: > 100 µM (inactive)
- GI50 [32]: > 100 µM (inactive)
- GI50 [33]: > 100 µM (inactive)
- GI50 [34]: > 100 µM (inactive)
- GI50 [35]: > 100 µM (inactive)
- GI50 [36]: > 100 µM (inactive)
- GI50 [37]: > 100 µM (inactive)
- GI50 [38]: > 100 µM (inactive)
- GI50 [39]: > 100 µM (inactive)
- GI50 [40]: > 100 µM (inactive)
- GI50 [41]: > 100 µM (inactive)
- GI50 [42]: > 100 µM (inactive)
- GI50 [43]: > 100 µM (inactive)
- GI50 [44]: > 100 µM (inactive)
- GI50 [45]: > 100 µM (inactive)
- GI50 [46]: > 100 µM (inactive)
- GI50 [47]: > 100 µM (inactive)
- GI50 [48]: > 100 µM (inactive)
- GI50 [49]: > 100 µM (inactive)
- GI50 [50]: > 100 µM (inactive)
- GI50 [51]: > 100 µM (inactive)
- GI50 [52]: > 100 µM (inactive)
- GI50 [53]: 97.7 µM (inactive)
- GI50 [54]: > 100 µM (inactive)
- GI50 [55]: 93.8 µM (inactive)
- GI50 [56]: > 100 µM (inactive)
- GI50 [57]: > 100 µM (inactive)
- GI50 [58]: > 100 µM (inactive)

SMILES: Cc1cc2c(cc1C)NC1=C(O)C(c3c[nH]c4ccc(COc5ccccc5)cc34)OC1=N2 (centres undefined)
- GI50 [1]: > 100 µM (inactive)
- GI50 [2]: 72.1 µM (inactive)
- GI50 [3]: 58.2 µM (inactive)
- GI50 [4]: 64.9 µM (inactive)
- GI50 [5]: > 100 µM
- GI50 [6]: > 100 µM (inactive)
- GI50 [7]: 37.8 µM (inactive)
- GI50 [8]: 60.8 µM (inactive)
- GI50 [9]: 17.1 µM (inactive)
- GI50 [10]: > 100 µM (inactive)
- GI50 [11]: > 100 µM (inactive)
- GI50 [12]: > 100 µM (inactive)
- GI50 [13]: > 100 µM (inactive)
- GI50 [14]: 36 µM (inactive)
- GI50 [15]: > 100 µM (inactive)
- GI50 [16]: 58.7 µM (inactive)
- GI50 [17]: > 100 µM (inactive)
- GI50 [18]: 42.2 µM (inactive)
- GI50 [19]: 14.9 µM (inactive)
- GI50 [20]: 96.8 µM (inactive)
- GI50 [21]: > 100 µM (inactive)
- GI50 [22]: > 100 µM (inactive)
- GI50 [23]: 20.4 µM (inactive)
- GI50 [24]: > 100 µM (inactive)
- GI50 [25]: > 100 µM (inactive)
- GI50 [26]: > 100 µM (inactive)
- GI50 [27]: 45.7 µM (inactive)
- GI50 [28]: > 100 µM (inactive)
- GI50 [29]: > 100 µM (inactive)
- GI50 [30]: 27.4 µM (inactive)
- GI50 [31]: > 100 µM (inactive)
- GI50 [32]: > 100 µM (inactive)
- GI50 [33]: 33.6 µM (inactive)
- GI50 [34]: 43.9 µM (inactive)
- GI50 [35]: > 100 µM (inactive)
- GI50 [36]: 53.5 µM (inactive)
- GI50 [37]: 22.3 µM (inactive)
- GI50 [38]: > 100 µM (inactive)
- GI50 [39]: 79.8 µM (inactive)
- GI50 [40]: > 100 µM (inactive)
- GI50 [41]: > 100 µM (inactive)
- GI50 [42]: 39.6 µM (inactive)
- GI50 [43]: > 100 µM (inactive)
- GI50 [44]: 32 µM (inactive)
- GI50 [45]: > 100 µM (inactive)
- GI50 [46]: > 100 µM (inactive)
- GI50 [47]: 34.4 µM (inactive)
- GI50 [48]: > 100 µM (inactive)
- GI50 [49]: 33.3 µM (inactive)
- GI50 [50]: > 100 µM (inactive)
- GI50 [51]: 30.5 µM (inactive)
- GI50 [52]: 65.9 µM (inactive)
- GI50 [53]: 33.6 µM (inactive)
- GI50 [54]: 50 µM (inactive)
- GI50 [55]: > 100 µM (inactive)
- GI50 [56]: 46.9 µM (inactive)
- GI50 [57]: > 100 µM (inactive)
- GI50 [58]: > 100 µM (inactive)

SMILES: C[N+](C)(C)CCN[N+]1(C)CCCc2ccccc21 (centres undefined)
- GI50 [1]: > 100 µM (inactive)
- GI50 [2]: > 100 µM (inactive)
- GI50 [3]: > 100 µM (inactive)
- GI50 [4]: > 100 µM (inactive)
- GI50 [5]: > 100 µM
- GI50 [6]: > 100 µM (inactive)
- GI50 [7]: > 100 µM (inactive)
- GI50 [8]: > 100 µM (inactive)
- GI50 [9]: > 100 µM (inactive)
- GI50 [10]: > 100 µM (inactive)
- GI50 [11]: > 100 µM (inactive)
- GI50 [12]: 38.5 µM (inactive)
- GI50 [13]: 39 µM (inactive)
- GI50 [14]: > 100 µM (inactive)
- GI50 [15]: > 100 µM (inactive)
- GI50 [16]: 54.1 µM (inactive)
- GI50 [17]: 36.2 µM (inactive)
- GI50 [18]: > 100 µM (inactive)
- GI50 [19]: > 100 µM (inactive)
- GI50 [20]: 52 µM (inactive)
- GI50 [21]: > 100 µM (inactive)
- GI50 [22]: > 100 µM (inactive)
- GI50 [23]: > 100 µM (inactive)
- GI50 [24]: > 100 µM (inactive)
- GI50 [25]: 18.5 µM (inactive)
- GI50 [26]: > 100 µM (inactive)
- GI50 [27]: > 100 µM (inactive)
- GI50 [28]: > 100 µM (inactive)
- GI50 [29]: > 100 µM (inactive)
- GI50 [30]: 4.92 µM (inactive)
- GI50 [31]: > 100 µM (inactive)
- GI50 [32]: > 100 µM (inactive)
- GI50 [33]: > 100 µM (inactive)
- GI50 [34]: > 100 µM (inactive)
- GI50 [35]: > 100 µM (inactive)
- GI50 [36]: > 100 µM (inactive)
- GI50 [37]: > 100 µM (inactive)
- GI50 [38]: > 100 µM (inactive)
- GI50 [39]: > 100 µM (inactive)
- GI50 [40]: 0.67 µM (active)
- GI50 [41]: > 100 µM (inactive)
- GI50 [42]: 36 µM (inactive)
- GI50 [43]: > 100 µM (inactive)
- GI50 [44]: 17.7 µM (inactive)
- GI50 [45]: 32.8 µM (inactive)
- GI50 [46]: > 100 µM (inactive)
- GI50 [47]: 52.1 µM (inactive)
- GI50 [48]: > 100 µM (inactive)
- GI50 [49]: > 100 µM (inactive)
- GI50 [50]: > 100 µM (inactive)
- GI50 [51]: 33.3 µM (inactive)
- GI50 [52]: 50.2 µM (inactive)
- GI50 [53]: > 100 µM (inactive)
- GI50 [54]: > 100 µM (inactive)
- GI50 [55]: 23 µM (inactive)
- GI50 [56]: 31 µM (inactive)
- GI50 [57]: 36.5 µM (inactive)
- GI50 [58]: > 100 µM (inactive)
